PMC6269769, “Novel Conformationally Constrained Analogues of Agomelatine as New Melatoninergic Ligands” (Molecules, 2012)
Where a name gives a salt, the structure may show the parent alone.

Key:
[1] = target: T1, human melatonin MT2 receptor (Homo sapiens, UniProt P49286); assay: […]-[…]iodomelatonin displacement, CHO membranes; assay type: binding
T1 construct: gene MTNR1B; receptor stably expressed in transfected CHO cells, membrane preparation
T1 sequence (P49286 1-362): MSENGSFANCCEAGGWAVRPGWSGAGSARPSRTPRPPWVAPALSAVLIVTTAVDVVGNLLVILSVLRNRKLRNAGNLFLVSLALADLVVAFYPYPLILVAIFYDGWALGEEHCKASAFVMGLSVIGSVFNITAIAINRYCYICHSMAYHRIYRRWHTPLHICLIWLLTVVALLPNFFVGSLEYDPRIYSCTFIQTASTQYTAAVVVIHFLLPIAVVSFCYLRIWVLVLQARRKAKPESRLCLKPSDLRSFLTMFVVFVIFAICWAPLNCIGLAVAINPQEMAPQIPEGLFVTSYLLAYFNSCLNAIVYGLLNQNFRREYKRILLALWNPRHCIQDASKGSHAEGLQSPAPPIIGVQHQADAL

[2] = target: T2, human melatonin MT1 receptor (Homo sapiens, UniProt P48039); assay: […]-[…]iodomelatonin displacement, CHO membranes; assay type: binding
T2 construct: gene MTNR1A; receptor stably expressed in transfected CHO cells, membrane preparation
T2 sequence (P48039 whole entry): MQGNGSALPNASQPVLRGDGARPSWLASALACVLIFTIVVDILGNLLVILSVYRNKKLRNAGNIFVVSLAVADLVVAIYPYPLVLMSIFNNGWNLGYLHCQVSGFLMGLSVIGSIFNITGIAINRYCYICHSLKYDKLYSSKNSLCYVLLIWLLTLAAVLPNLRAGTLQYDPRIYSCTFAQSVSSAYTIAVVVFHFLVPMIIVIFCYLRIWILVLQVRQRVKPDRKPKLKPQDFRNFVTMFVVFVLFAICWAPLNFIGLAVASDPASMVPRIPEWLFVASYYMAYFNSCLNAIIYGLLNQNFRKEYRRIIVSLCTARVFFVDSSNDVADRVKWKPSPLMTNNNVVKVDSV

| SMILES | Ki [1] | Ki [2] |
| --- | --- | --- |
| COc1ccc2cccc(CCN3CCOC3=O)c2c1 [7a] | 6 ± 0.2 nM | 113 ± 18 nM |
| COc1ccc2cccc(CCN3CCCC3=O)c2c1 [7b] | 2.1 ± 0.01 nM | 68.5 ± 18.2 nM |
| COc1ccc2cccc3c2c1CN(C(C)=O)CC3 [9a, 1-(10-Methoxy-1,2,3,4-tetrahydro-naphto[1,8-cd]azepin-2-yl)ethanone] | 469 ± 44 nM | 2500 ± 57 nM |
| COc1ccc2ccc3c(c2c1)CCN(C(C)=O)C3 [9b, 1-(9-Methoxy-1,2,3,4-tetrahydro-benzo[f]isoquinolein-3-yl)ethanone] | 800 ± 59 nM | 3000 ± 27 nM |
| COc1ccc2cccc(CC3=NOS(=O)N3)c2c1 (stereo not shown) [compound 3, 4-[(7-Methoxynaphth-1-yl)methyl]-3H-1,2,3,5-oxathiadiazole 2-oxide] | 1300 nM | > 1000 nM |
| COc1ccc2cccc(Cc3noc(=O)[nH]3)c2c1 [compound 4, 3-[(7-Methoxynaphth-1-yl)methyl]-1,2,4-oxadiazole-5(4H)-one] | 25.2 ± 10.7 nM | 80 ± 16 nM |
| COc1ccc2cccc(Cc3nn[nH]n3)c2c1 [compound 5, 5-(7-Methoxynaphth-1-ylmethyl)-1H-tetrazole] | 190 ± 84 nM | 380 ± 114 nM |
| COc1ccc2cccc(CC3NC(=O)NC3=O)c2c1 (stereo not shown) [compound 12, 5-[(7-Methoxynaphth-1-yl)methyl]-imidazolidin-2,4-diones] | 141 ± 31 nM | 2170 ± 63 nM |
| COc1ccc2cccc(CCNc3nccs3)c2c1 [compound 13, 2-[2-(7-Methoxynaphth-1-yl)]-ethylamino]-1,3-thiazole hydrochloride] | 12.5 ± 0.4 nM | 33.9 ± 8.1 nM |
| COc1ccc2cccc(CCNc3ncc(C)s3)c2c1 [compound 14, 2-[2-(7-Methoxynaphth-1-yl)ethylamino]-5-methyl-1,3-thiazole] | 354 ± 32 nM | 389 ± 121 nM |
| COc1ccc2cccc(CCNc3cc(C)on3)c2c1 [compound 15, 3-[2-(7-Methoxynaphth-1-yl)ethylamino]-5-methyl-1,2-isoxazole hydrochloride] | 20.3 ± 3.9 nM | 48.4 ± 11.2 nM |
